Test results reported in ChEMBL document CHEMBL1153786, “Cardenolide glycosides of Thevetia peruviana and triterpenoid saponins of Sapindus emarginatus as TRAIL resistance-overcoming compounds” (2009).
Calls of active or inactive are those of the source. No cut-off for these calls is given here.

Assays:
Format in all cases: functional
[1] = test system: AGS; assay: Cytotoxicity against human TRAIL-resistant AGS cells after 24 hrs by FMCA in presence of TRAIL
[2] = test system: AGS; assay: Cytotoxicity against human TRAIL-resistant AGS cells at 27.1 nM after 24 hrs by FMCA in presence of TRAIL
[3] = test system: AGS; assay: Cytotoxicity against human TRAIL-resistant AGS cells at 29.2 nM after 24 hrs by FMCA in presence of TRAIL
[4] = test system: AGS; assay: Cytotoxicity against human TRAIL-resistant AGS cells at 29.2 nM after 24 hrs by FMCA in absence of TRAIL
[5] = test system: AGS; assay: Induction of DR4 mRNA expression in human TRAIL-resistant AGS cells at 125 nM by reat-time RT-PCR analysis relative to GADPH
[6] = test system: AGS; assay: Cytotoxicity against human TRAIL-resistant AGS cells at 125 nM after 24 hrs by FMCA in absence of TRAIL
[7] = test system: AGS; assay: Induction of DR5 mRNA expression in human TRAIL-resistant AGS cells at 250 nM by reat-time RT-PCR analysis relative to GADPH
[8] = test system: AGS; assay: Induction of DR5 mRNA expression in human TRAIL-resistant AGS cells at 125 nM by reat-time RT-PCR analysis relative to GADPH
[9] = test system: AGS; assay: Induction of DR4 mRNA expression in human TRAIL-resistant AGS cells at 500 nM by reat-time RT-PCR analysis relative to GADPH
[10] = test system: AGS; assay: Induction of DR5 mRNA expression in human TRAIL-resistant AGS cells at 500 nM by reat-time RT-PCR analysis relative to GADPH
[11] = test system: AGS; assay: Cytotoxicity against human TRAIL-resistant AGS cells at 125 nM after 24 hrs by FMCA in presence of TRAIL
[12] = test system: AGS; assay: Induction of DR4 mRNA expression in human TRAIL-resistant AGS cells at 250 nM by reat-time RT-PCR analysis relative to GADPH

CC(=O)O[C@H]1[C@H](O[C@@H]2[C@@H](O)[C@H](C)O[C@@H](O[C@H]3[C@H](O[C@H]4CC[C@@]5(C)[C@@H](CC[C@]6(C)[C@@H]5CC=C5[C@@H]7CC(C)(C)CCC7(C(=O)O)CC[C@]56C)[C@]4(C)CO)OC[C@H](O)[C@@H]3O)[C@@H]2O)OC[C@@H](O)[C@@H]1O (stereo partly specified)
Activity [1]: Active
Activity [2]: 45%

CC(=O)O[C@@H]1CO[C@@H](O[C@@H]2[C@@H](O)[C@H](C)O[C@@H](O[C@H]3[C@H](O[C@H]4CC[C@@]5(C)[C@@H](CC[C@]6(C)[C@@H]5CC=C5[C@@H]7CC(C)(C)CCC7(C(=O)O)CC[C@]56C)[C@]4(C)CO)OC[C@H](O)[C@@H]3O)[C@@H]2O)[C@H](O)[C@H]1O (stereo partly specified)
Activity [1]: Active

CC(=O)O[C@@H]1[C@@H](O)[C@H](O[C@@H]2[C@@H](O)[C@H](C)O[C@@H](O[C@H]3[C@H](O[C@H]4CC[C@@]5(C)[C@@H](CC[C@]6(C)[C@@H]5CC=C5[C@@H]7CC(C)(C)CCC7(C(=O)O)CC[C@]56C)[C@]4(C)CO)OC[C@H](O)[C@@H]3O)[C@@H]2O)OC[C@H]1OC(C)=O (stereo partly specified)
Activity [1]: Active

CC(=O)O[C@H]1[C@H](O[C@@H]2[C@@H](O)[C@H](C)O[C@@H](O[C@H]3[C@H](O[C@H]4CC[C@@]5(C)[C@@H](CC[C@]6(C)[C@@H]5CC=C5[C@@H]7CC(C)(C)CCC7(C(=O)O)CC[C@]56C)[C@]4(C)CO)OC[C@H](O)[C@@H]3O)[C@@H]2O)OC[C@@H](OC(C)=O)[C@@H]1O (stereo partly specified)
Activity [1]: Active

O=c1cc(-c2ccc(O)c(O)c2)oc2cc(O)cc(O)c12 [LUTEOLIN]
Activity [1]: 70%

CO[C@H]1[C@H](O)[C@H](O[C@H]2CC[C@@]3(C)[C@H](CC[C@@H]4[C@@H]3CC[C@]3(C)[C@@H](C5=CC(=O)OC5)CC[C@]43O)C2)O[C@@H](C)[C@@H]1O [NERIIFOLIN]
Activity [3]: 36%
Activity [4]: 79%

CO[C@H]1[C@H](O)[C@H](O[C@H]2CC[C@@]3(C)[C@@H](CC[C@@H]4[C@@H]3CC[C@]3(C)[C@@H](C5=CC(=O)OC5)CC[C@]43O)C2)O[C@@H](C)[C@@H]1O [THEVEFOLIN]
fold change (FC) [5]: 1.8
Activity [6]: 65%
fold change (FC) [7]: 1.6
fold change (FC) [8]: 1.2
fold change (FC) [9]: 3.6
fold change (FC) [10]: 1.8
Activity [11]: 46%
fold change (FC) [12]: 3.3
